The series is described as follows: xn = mol fraction of the nth substance listed. Particulars: for electrical conductivity: frequency 0.01 MHz.

± gives the uncertainty stated by the source.

With `CN(C)C=O` + CCCCCCCC[n+]1ccn(C)c1.F[P-](F)(F)(F)(F)F, the viscosity by setting is: (293.15 K, 101 kPa, x2 = 0) 0.881 ± 0.03 mPa·s; (303.15 K, 101 kPa, x2 = 0) 0.771 ± 0.029 mPa·s; (313.15 K, 101 kPa, x2 = 0) 0.668 ± 0.028 mPa·s; (323.15 K, 101 kPa, x2 = 0) 0.605 ± 0.028 mPa·s; (333.15 K, 101 kPa, x2 = 0) 0.553 ± 0.025 mPa·s; (353.15 K, 101 kPa, x2 = 0) 0.479 ± 0.02 mPa·s. For the setting “363.15 K, 101 kPa, x2 = 0”, the viscosity is listed as 0.447 ± 0.018 mPa·s.
`CCCC[n+]1ccn(C)c1.O=S(=O)([N-]S(=O)(=O)C(F)(F)F)C(F)(F)F` + O=C1CCCCCO1: the electrical conductivity (293.15 K, 100 kPa, x1 = 1) was determined as 0.337 ± 0.013 S/m; the electrical conductivity (298.15 K, 100 kPa, x1 = 1) stood at 0.4 ± 0.016 S/m; the electrical conductivity (303.15 K, 100 kPa, x1 = 1) turned out to be 0.472 ± 0.019 S/m; the electrical conductivity (308.15 K, 100 kPa, x1 = 1) was 0.552 ± 0.022 S/m; the electrical conductivity (313.15 K, 100 kPa, x1 = 1) is 0.64 ± 0.026 S/m; the electrical conductivity (318.15 K, 100 kPa, x1 = 1) amounted to 0.733 ± 0.029 S/m. Where the note is “323.15 K, 100 kPa, x1 = 1”, this molecule displayed an electrical conductivity of 0.835 ± 0.033 S/m.
In the case of `CC(CC(C)(C)C)CP(=O)([O-])CC(C)CC(C)(C)C.CCCCCCCCCCCCCC[P+](CCCCCC)(CCCCCC)CCCCCC` + O, the viscosity is, setting by setting: (298.15 K, 100 kPa, x1 = 0.1299) 139 ± 9 mPa·s; (323.15 K, 100 kPa, x1 = 0.7943) 264 ± 19 mPa·s.
As for `CCCCCCCC/C=C\CCCCCCCC(=O)O` + Cc1ccccc1 + CC[N+](CC)(CC)CC.[Cl-], the viscosity by setting is: (298.2 K, 100 kPa, x2 = 0, x3 = 0.25) 202 ± 10 mPa·s; (298.2 K, 100 kPa, x2 = 0.2, x3 = 0.2) 39 mPa·s; (298.2 K, 100 kPa, x2 = 0.4, x3 = 0.149) 10.8 ± 1.8 mPa·s; (298.2 K, 100 kPa, x2 = 0.6, x3 = 0.1) 3.19 ± 0.76 mPa·s; (298.2 K, 100 kPa, x2 = 0.8, x3 = 0.05) 0.91 ± 0.01 mPa·s.
Consider `CN(C)C=O` + CCCC[n+]1ccn(C)c1.[Cl-], for which, under “288.15 K, 101 kPa, x1 = 1”, the viscosity came out at 0.94 ± 0.11 mPa·s.
Take `CCCC[n+]1ccn(C)c1.F[P-](F)(F)(F)(F)F` + CCC(C)=O: the viscosity by setting is: (298.15 K, 101.3 kPa, x2 = 0.3016) 43.3 ± 1.4 mPa·s; (298.15 K, 101.3 kPa, x2 = 0.4024) 23.55 ± 0.66 mPa·s; (298.15 K, 101.3 kPa, x2 = 0.4485) 18.18 ± 0.49 mPa·s; (298.15 K, 101.3 kPa, x2 = 0.6517) 5.15 ± 0.13 mPa·s.
Regarding `CCCC[P+](C)(CCCC)CCCC.COS(=O)(=O)[O-]` + CN(C)C=O, the viscosity runs as follows: (293.15 K, 100 kPa, x1 = 0.3321) 27.12 ± 0.71 mPa·s; (293.15 K, 100 kPa, x1 = 0.4272) 67.1 ± 1.8 mPa·s; (293.15 K, 100 kPa, x1 = 0.9362) 625 ± 55 mPa·s; (298.15 K, 100 kPa, x1 = 1) 521 ± 43 mPa·s; (303.15 K, 100 kPa, x1 = 0.0765) 2.239 ± 0.064 mPa·s; (303.15 K, 100 kPa, x1 = 0.8837) 287 ± 18 mPa·s. The viscosity (308.15 K, 100 kPa, x1 = 0.6717) was determined as 99.2 ± 3.4 mPa·s; the viscosity (313.15 K, 100 kPa, x1 = 0.0474) is on record as 1.983 ± 0.051 mPa·s; the viscosity (313.15 K, 100 kPa, x1 = 1) is listed as 217 ± 12 mPa·s; the viscosity (318.15 K, 100 kPa, x1 = 0.2582) is 8.21 ± 0.19 mPa·s; the viscosity (318.15 K, 100 kPa, x1 = 0.3321) is on record as 12.45 ± 0.3 mPa·s; the viscosity (323.15 K, 100 kPa, x1 = 0.1508) was 3.946 ± 0.088 mPa·s. In addition, under “323.15 K, 100 kPa, x1 = 0.8837”, the viscosity is recorded as 112.5 ± 4.4 mPa·s.

Broadly, the viscosity is the resistance of a fluid to flow.

Source of the values: the CheMixHub ionic liquid set.
